ChEMBL document CHEMBL3044736, “Synthesis, characterization, solvatochromic properties, and antimicrobial evaluation of 5-acetyl-2-thioxo-dihydro-pyrimidine-4,6-dione-based chalcones” (2013)
Converted amounts (≈) assume the structure as drawn.

Assays:
Assay type in all cases: functional
Pseudomonas aeruginosa [1] = experiment: Antimicrobial activity against Pseudomonas aeruginosa MTCC 1688 assessed as diameter of growth inhibition zone at 50 ug/ml after 18-24 hr by agar cup diffusion method; details: read-out: DIZ
Streptococcus pyogenes [2] = experiment: Antimicrobial activity against Streptococcus pyogenes MTCC 442 assessed as diameter of growth inhibition zone at 100 ug/ml after 18-24 hr by agar cup diffusion method; details: read-out: DIZ
Trichophyton rubrum [3] = experiment: Antimicrobial activity against Trichophyton rubrum MTCC 296 by agar cup diffusion method
Candida albicans [4] = experiment: Antimicrobial activity against Candida albicans MTCC 227 assessed as diameter of growth inhibition zone at 25 ug/ml after 48-96 hr by agar cup diffusion method; details: read-out: DIZ
Candida albicans [5] = experiment: Antimicrobial activity against Candida albicans MTCC 227 assessed as diameter of growth inhibition zone at 250 ug/ml after 48-96 hr by agar cup diffusion method; details: read-out: DIZ
Escherichia coli [6] = experiment: Antimicrobial activity against Escherichia coli MTCC 443 by agar cup diffusion method
Penicillium [7] = experiment: Antimicrobial activity against Penicillium wild strain assessed as diameter of growth inhibition zone at 25 ug/ml after 48-96 hr by agar cup diffusion method; details: read-out: DIZ
Pseudomonas aeruginosa [8] = experiment: Antimicrobial activity against Pseudomonas aeruginosa MTCC 1688 assessed as diameter of growth inhibition zone at 25 ug/ml after 18-24 hr by agar cup diffusion method; details: read-out: DIZ
Aspergillus clavatus [9] = experiment: Antimicrobial activity against Aspergillus clavatus MTCC 1323 by agar cup diffusion method
Penicillium [10] = experiment: Antimicrobial activity against Penicillium wild strain by agar cup diffusion method
Staphylococcus aureus [11] = experiment: Antimicrobial activity against Staphylococcus aureus MTCC 96 assessed as diameter of growth inhibition zone at 100 ug/ml after 18-24 hr by agar cup diffusion method; details: read-out: DIZ
Klebsiella pneumoniae [12] = experiment: Antimicrobial activity against Klebsiella pneumoniae MTCC 109 assessed as diameter of growth inhibition zone at 25 ug/ml after 18-24 hr by agar cup diffusion method; details: read-out: DIZ
Trichophyton rubrum [13] = experiment: Antimicrobial activity against Trichophyton rubrum MTCC 296 assessed as diameter of growth inhibition zone at 50 ug/ml after 48-96 hr by agar cup diffusion method; details: read-out: DIZ
Streptococcus pyogenes [14] = experiment: Antimicrobial activity against Streptococcus pyogenes MTCC 442 by agar cup diffusion method
Aspergillus clavatus [15] = experiment: Antimicrobial activity against Aspergillus clavatus MTCC 1323 assessed as diameter of growth inhibition zone at 100 ug/ml after 48-96 hr by agar cup diffusion method; details: read-out: DIZ
Aspergillus clavatus [16] = experiment: Antimicrobial activity against Aspergillus clavatus MTCC 1323 assessed as diameter of growth inhibition zone at 250 ug/ml after 48-96 hr by agar cup diffusion method; details: read-out: DIZ
Pseudomonas aeruginosa [17] = experiment: Antimicrobial activity against Pseudomonas aeruginosa MTCC 1688 assessed as diameter of growth inhibition zone at 100 ug/ml after 18-24 hr by agar cup diffusion method; details: read-out: DIZ
Streptococcus pyogenes [18] = experiment: Antimicrobial activity against Streptococcus pyogenes MTCC 442 assessed as diameter of growth inhibition zone at 250 ug/ml after 18-24 hr by agar cup diffusion method; details: read-out: DIZ
Escherichia coli [19] = experiment: Antimicrobial activity against Escherichia coli MTCC 443 assessed as diameter of growth inhibition zone at 250 ug/ml after 18-24 hr by agar cup diffusion method; details: read-out: DIZ
Aspergillus clavatus [20] = experiment: Antimicrobial activity against Aspergillus clavatus MTCC 1323 assessed as diameter of growth inhibition zone at 50 ug/ml after 48-96 hr by agar cup diffusion method; details: read-out: DIZ
Escherichia coli [21] = experiment: Antimicrobial activity against Escherichia coli MTCC 443 assessed as diameter of growth inhibition zone at 50 ug/ml after 18-24 hr by agar cup diffusion method; details: read-out: DIZ
Penicillium [22] = experiment: Antimicrobial activity against Penicillium wild strain assessed as diameter of growth inhibition zone at 250 ug/ml after 48-96 hr by agar cup diffusion method; details: read-out: DIZ
Candida albicans [23] = experiment: Antimicrobial activity against Candida albicans MTCC 227 assessed as diameter of growth inhibition zone at 50 ug/ml after 48-96 hr by agar cup diffusion method; details: read-out: DIZ
Klebsiella pneumoniae [24] = experiment: Antimicrobial activity against Klebsiella pneumoniae MTCC 109 assessed as diameter of growth inhibition zone at 250 ug/ml after 18-24 hr by agar cup diffusion method; details: read-out: DIZ
Klebsiella pneumoniae [25] = experiment: Antimicrobial activity against Klebsiella pneumoniae MTCC 109 by agar cup diffusion method
Pseudomonas aeruginosa [26] = experiment: Antimicrobial activity against Pseudomonas aeruginosa MTCC 1688 assessed as diameter of growth inhibition zone at 250 ug/ml after 18-24 hr by agar cup diffusion method; details: read-out: DIZ
Klebsiella pneumoniae [27] = experiment: Antimicrobial activity against Klebsiella pneumoniae MTCC 109 assessed as diameter of growth inhibition zone at 50 ug/ml after 18-24 hr by agar cup diffusion method; details: read-out: DIZ
Staphylococcus aureus [28] = experiment: Antimicrobial activity against Staphylococcus aureus MTCC 96 assessed as diameter of growth inhibition zone at 25 ug/ml after 18-24 hr by agar cup diffusion method; details: read-out: DIZ
Trichophyton rubrum [29] = experiment: Antimicrobial activity against Trichophyton rubrum MTCC 296 assessed as diameter of growth inhibition zone at 25 ug/ml after 48-96 hr by agar cup diffusion method; details: read-out: DIZ
Escherichia coli [30] = experiment: Antimicrobial activity against Escherichia coli MTCC 443 assessed as diameter of growth inhibition zone at 25 ug/ml after 18-24 hr by agar cup diffusion method; details: read-out: DIZ
Penicillium [31] = experiment: Antimicrobial activity against Penicillium wild strain assessed as diameter of growth inhibition zone at 50 ug/ml after 48-96 hr by agar cup diffusion method; details: read-out: DIZ
Candida albicans [32] = experiment: Antimicrobial activity against Candida albicans MTCC 227 by agar cup diffusion method
Staphylococcus aureus [33] = experiment: Antimicrobial activity against Staphylococcus aureus MTCC 96 assessed as diameter of growth inhibition zone at 50 ug/ml after 18-24 hr by agar cup diffusion method; details: read-out: DIZ
Staphylococcus aureus [34] = experiment: Antimicrobial activity against Staphylococcus aureus MTCC 96 by agar cup diffusion method
Staphylococcus aureus [35] = experiment: Antimicrobial activity against Staphylococcus aureus MTCC 96 assessed as diameter of growth inhibition zone at 250 ug/ml after 18-24 hr by agar cup diffusion method; details: read-out: DIZ
Aspergillus clavatus [36] = experiment: Antimicrobial activity against Aspergillus clavatus MTCC 1323 assessed as diameter of growth inhibition zone at 25 ug/ml after 48-96 hr by agar cup diffusion method; details: read-out: DIZ
Trichophyton rubrum [37] = experiment: Antimicrobial activity against Trichophyton rubrum MTCC 296 assessed as diameter of growth inhibition zone at 250 ug/ml after 48-96 hr by agar cup diffusion method; details: read-out: DIZ
Streptococcus pyogenes [38] = experiment: Antimicrobial activity against Streptococcus pyogenes MTCC 442 assessed as diameter of growth inhibition zone at 25 ug/ml after 18-24 hr by agar cup diffusion method; details: read-out: DIZ
Klebsiella pneumoniae [39] = experiment: Antimicrobial activity against Klebsiella pneumoniae MTCC 109 assessed as diameter of growth inhibition zone at 100 ug/ml after 18-24 hr by agar cup diffusion method; details: read-out: DIZ
Candida albicans [40] = experiment: Antimicrobial activity against Candida albicans MTCC 227 assessed as diameter of growth inhibition zone at 100 ug/ml after 48-96 hr by agar cup diffusion method; details: read-out: DIZ
Escherichia coli [41] = experiment: Antimicrobial activity against Escherichia coli MTCC 443 assessed as diameter of growth inhibition zone at 100 ug/ml after 18-24 hr by agar cup diffusion method; details: read-out: DIZ
Penicillium [42] = experiment: Antimicrobial activity against Penicillium wild strain assessed as diameter of growth inhibition zone at 100 ug/ml after 48-96 hr by agar cup diffusion method; details: read-out: DIZ
Streptococcus pyogenes [43] = experiment: Antimicrobial activity against Streptococcus pyogenes MTCC 442 assessed as diameter of growth inhibition zone at 50 ug/ml after 18-24 hr by agar cup diffusion method; details: read-out: DIZ
Pseudomonas aeruginosa [44] = experiment: Antimicrobial activity against Pseudomonas aeruginosa MTCC 1688 by agar cup diffusion method
Trichophyton rubrum [45] = experiment: Antimicrobial activity against Trichophyton rubrum MTCC 296 assessed as diameter of growth inhibition zone at 100 ug/ml after 48-96 hr by agar cup diffusion method; details: read-out: DIZ

Cc1ccc(/C=C/C(=O)C2C(=O)NC(=S)NC2=O)cc1
zone of inhibition at 50 µg/mL (Pseudomonas aeruginosa [1]): 12 mm | zone of inhibition at 100 µg/mL (Streptococcus pyogenes [2]): 18 mm | MFC (Trichophyton rubrum [3]): > 1000 µg/mL | MIC (Trichophyton rubrum [3]): > 1000 µg/mL | zone of inhibition at 25 µg/mL (Candida albicans [4]): 19 mm | zone of inhibition at 250 µg/mL (Candida albicans [5]): 24 mm | MBC (Escherichia coli [6]): 200 µg/mL (≈ 694 µM) | MIC (Escherichia coli [6]): 100 µg/mL (≈ 347 µM) | zone of inhibition at 25 µg/mL (Penicillium [7]): 18 mm | zone of inhibition at 25 µg/mL (Pseudomonas aeruginosa [8]): 10 mm | MFC (Aspergillus clavatus [9]): > 1000 µg/mL | MIC (Aspergillus clavatus [9]): > 1000 µg/mL | MFC (Penicillium [10]): > 1000 µg/mL | MIC (Penicillium [10]): > 1000 µg/mL | zone of inhibition at 100 µg/mL (Staphylococcus aureus [11]): 16 mm | zone of inhibition at 25 µg/mL (Klebsiella pneumoniae [12]): 12 mm | zone of inhibition at 50 µg/mL (Trichophyton rubrum [13]): 20 mm | MBC (Streptococcus pyogenes [14]): 200 µg/mL (≈ 694 µM) | MIC (Streptococcus pyogenes [14]): 250 µg/mL (≈ 867 µM) | zone of inhibition at 100 µg/mL (Aspergillus clavatus [15]): 22 mm | zone of inhibition at 250 µg/mL (Aspergillus clavatus [16]): 25 mm | zone of inhibition at 100 µg/mL (Pseudomonas aeruginosa [17]): 16 mm | zone of inhibition at 250 µg/mL (Streptococcus pyogenes [18]): 19 mm | zone of inhibition at 250 µg/mL (Escherichia coli [19]): 19 mm | zone of inhibition at 50 µg/mL (Aspergillus clavatus [20]): 22 mm | zone of inhibition at 50 µg/mL (Escherichia coli [21]): 15 mm | zone of inhibition at 250 µg/mL (Penicillium [22]): 22 mm | zone of inhibition at 50 µg/mL (Candida albicans [23]): 20 mm | zone of inhibition at 250 µg/mL (Klebsiella pneumoniae [24]): 17 mm | MBC (Klebsiella pneumoniae [25]): 100 µg/mL (≈ 347 µM) | MIC (Klebsiella pneumoniae [25]): 100 µg/mL (≈ 347 µM) | zone of inhibition at 250 µg/mL (Pseudomonas aeruginosa [26]): 17 mm | zone of inhibition at 50 µg/mL (Klebsiella pneumoniae [27]): 14 mm | zone of inhibition at 25 µg/mL (Staphylococcus aureus [28]): 10 mm | zone of inhibition at 25 µg/mL (Trichophyton rubrum [29]): 19 mm | zone of inhibition at 25 µg/mL (Escherichia coli [30]): 15 mm | zone of inhibition at 50 µg/mL (Penicillium [31]): 18 mm | MFC (Candida albicans [32]): > 1000 µg/mL | MIC (Candida albicans [32]): 1000 µg/mL (≈ 3470 µM) | zone of inhibition at 50 µg/mL (Staphylococcus aureus [33]): 12 mm | MBC (Staphylococcus aureus [34]): 125 µg/mL (≈ 434 µM) | MIC (Staphylococcus aureus [34]): 125 µg/mL (≈ 434 µM) | zone of inhibition at 250 µg/mL (Staphylococcus aureus [35]): 17 mm | zone of inhibition at 25 µg/mL (Aspergillus clavatus [36]): 21 mm | zone of inhibition at 250 µg/mL (Trichophyton rubrum [37]): 25 mm | zone of inhibition at 25 µg/mL (Streptococcus pyogenes [38]): 15 mm | zone of inhibition at 100 µg/mL (Klebsiella pneumoniae [39]): 15 mm | zone of inhibition at 100 µg/mL (Candida albicans [40]): 21 mm | zone of inhibition at 100 µg/mL (Escherichia coli [41]): 18 mm | zone of inhibition at 100 µg/mL (Penicillium [42]): 19 mm | zone of inhibition at 50 µg/mL (Streptococcus pyogenes [43]): 15 mm | MBC (Pseudomonas aeruginosa [44]): 500 µg/mL (≈ 1730 µM) | MIC (Pseudomonas aeruginosa [44]): 250 µg/mL (≈ 867 µM) | zone of inhibition at 100 µg/mL (Trichophyton rubrum [45]): 22 mm
